Results published in EP0450065A1, “ANTIVIRAL AGENT” (priority 1988, dated 1990).
Where two headings read alike, the source gives them in different places.

Assays:
Assay type in all cases: cell-based
[1] = system: herpes simplex virus type 1 (HF strain); test: Control of CPE (cytopathic effect) manifestation in vero cells; set-up: key to Cytopathic effect [CPE] (3days) Average / Cytopathic effect [CPE] (5days) Average / Cytopathic effect [CPE] (6days) Average: CPE score: 0 none, 0.5 minute spots, 1 = 25%, 2 = 50%, 3 = ≥75% cells; key to Cytopathic effect [CPE] (3days) △CPE / Cytopathic effect [CPE] (5days) △CPE / Cytopathic effect [CPE] (3days) ΔCPE / Cytopathic effect [CPE] (6days) ΔCPE: ΔCPE = difference of average CPE score (0–3 scale) from control; conditions: 20 μg/ml, HSV-1 (HF strain), Example 5; for Cytopathic effect [CPE] (3days) ΔCPE / Cytopathic effect [CPE] (6days) ΔCPE: difference from control
Procedure: (§1) In vitro antiviral activity of Compound A against herpes simplex virus type 1 (HF strain) Compound A was tested for antiviral effect by the following two methods.
(§2) Vero cells cultured and grown in a monolayer on microplates to test for cytopathic effect due to viral infection, with solutions of Compound A diluted to varying ratios and solutions of virus diluted to varying ratios added severally thereto in a volume of 0.1 ml, were cultured under the conditions of 5% CO₂ and 37°C and were examined for CPE manifestation under a microscope. The observation was continued for five to six days.
(§3) The degree of CPE brought about by viral infection was rated on the five-point scale, wherein 3 stands for CPE observed on not less than 75% of cultured cells, 2 for CPE observed on 50% of cultured cells, 1 for CPE observed on 25% of cultured cells, 0.5 for occurrence of one to two extremely minute DPE spots, and 0 for perfect absence of recognizable CPE. The CPE scores obtained at the four holes in each microplate were averaged and the difference of the average from the average obtained in the control (omitting the treatment with a chemical) was reported as ΔCPE.
(§4) In vitro antiviral effect of Compound A against herpes simplex virus type 1 (HF strain) The test was carried out by following the procedure of Example 3.

[2] = system: herpes simplex virus type 1 (HF strain); test: 50% Tissue culture infective dose (TCID50), Read-Munch method, negative logarithm of virus dilution
Procedure: as §1
(§5) The amount of virus infecting 50% of tissues (TCID₅₀) was determined by the Read-Munch method and expressed in negative logarithm of the maximum radio of dilution of virus. The difference of the amount thus determined from the amount found in the control (omitting the treatment with a chemical) was reported as ΔTCID₅₀. A sample whose ΔCPE's found on the last day of observation and on each of the days spent for the observation exceeded 1.0 was evaluated as effective.
as §4

[3] = system: herpes simplex virus type 2 (169 strain); test: Control of CPE (cytopathic effect) manifestation in vero cells; set-up: key to Cytopathic effect [CPE] (3days) Average / Cytopathic effect [CPE] (5days) Average / Cytopathic effect [CPE] (6days) Average: CPE score 0-3: 3 = ≥75% cells, 2 = 50%, 1 = 25%, 0 = none; key to Cytopathic effect [CPE] (3days) △CPE / Cytopathic effect [CPE] (5days) △CPE / Cytopathic effect [CPE] (6days) △CPE: difference of mean CPE score (0-3 scale) from untreated control; conditions: 20 μg/ml, HSV-2 (169), Example 6; for Cytopathic effect [CPE] (3days) △CPE / Cytopathic effect [CPE] (6days) △CPE: difference from control
Procedure: as §2, §3
(§6) In vitro antiviral activity of Compound A against herpes simplex virus type 2 (169 strain) The test was carried out by following the procedure of Example 3.

[4] = system: herpes simplex virus type 2 (169 strain); test: 50% Tissue culture infective dose (TCID50), Read-Munch method, negative logarithm of virus dilution; set-up: key to Cytopathic effect [CPE] (5days) △TCID50 / Cytopathic effect [CPE] (6days) △TCID50 / Cytopathic effect [CPE] (3days) △TCID50: difference in -log TCID50 from untreated control; key to Cytopathic effect [CPE] (5days) TCID50 / Cytopathic effect [CPE] (3days) TCID50 / Cytopathic effect [CPE] (6days) TCID50: negative log of maximum virus dilution infecting 50% of tissues; conditions: HSV-2 (169), Example 6
Procedure: as §5, §6

[5] = system: herpes simplex virus type 1 (KOS strain); test: Control of CPE (cytopathic effect) manifestation in vero cells; conditions: 30 μg/ml, HSV-1 (KOS), Example 7; for Cytopathic effect [CPE] (3days) △CPE / Cytopathic effect [CPE] (5days) △CPE: difference from control
Procedure: as §2, §3
(§7) Antiviral activity of Compound A and Compound B against herpes simplex virus type 1 (KOS strain) The test was carried out by following the procedure of Example 3.

[6] = system: herpes simplex virus type 1 (KOS strain); test: 50% Tissue culture infective dose (TCID50), Read-Munch method, negative logarithm of virus dilution; set-up: key to Cytopathic effect [CPE] (5days) TCID50 / Cytopathic effect [CPE] (3days) TCID50: TCID50 as negative log of maximum virus dilution ratio
Procedure: as §5, §7

[7] = system: herpes simplex virus type 1 (KOS strain); test: One-step growth of virus, plaque assay with vero cells; conditions: 30 μg/ml, 24 hours; for log reduction at 30 µg/mL / inhibition at 30 µg/mL: Human alphaherpesvirus 1, Vero; for log reduction at 30 µg/mL: read-out: Intracellular virus Control ratio -logT/C; for inhibition at 30 µg/mL: read-out: Intracellular virus Control ratio %
Procedure: Antiviral activity of Compound A and Compound B against one-step growth of herpes simplex virus type 1 (KOS strain) Cells grown in a monolayer, with a sample of a given compound diluted in a varying ratio added, were pretreated for 15 minutes. Then, the pretreated cells were infected with the herpes simplex virus type 1 (KOS strain) at an infecting ratio of 0.25 and left standing for 24 hours. At the end of the standing, the intracellular and extracellular amounts of virus were determined by the plaque assay with vero cells.

[8] = 20 μg/ml, HSV-1 (HF strain), Example 5
[9] = Human alphaherpesvirus 1, 72 h, read-out: Cytopathic effect [CPE] (3days) ΔTCID50
[10] = Human alphaherpesvirus 1, 144 h, read-out: Cytopathic effect [CPE] (6days) ΔTCID50
[11] = 30 μg/ml, HSV-1 (KOS), Example 7

Row | SMILES | Cytopathic effect [CPE] (3days) Average [1] | Cytopathic effect [CPE] (6days) Average [1] | Cytopathic effect [CPE] (3days) ΔCPE [1] | Cytopathic effect [CPE] (6days) ΔCPE [1] | Cytopathic effect [CPE] (3days) TCID50 [2, 8] | Cytopathic effect [CPE] (6days) TCID50 [2, 8] | log reduction at 20 µg/mL [2, 9] | log reduction at 20 µg/mL [2, 10] | Cytopathic effect [CPE] (3days) Average [3] | Cytopathic effect [CPE] (6days) Average [3] | Cytopathic effect [CPE] (3days) △CPE [3] | Cytopathic effect [CPE] (6days) △CPE [3] | Cytopathic effect [CPE] (3days) TCID50 ([4]; 20 μg/ml) | Cytopathic effect [CPE] (6days) TCID50 ([4]; 20 μg/ml) | Cytopathic effect [CPE] (3days) Average [5] | Cytopathic effect [CPE] (5days) Average [5] | Cytopathic effect [CPE] (3days) △CPE [5] | Cytopathic effect [CPE] (5days) △CPE [5] | Cytopathic effect [CPE] (3days) TCID50 [6, 11] | Cytopathic effect [CPE] (5days) TCID50 [6, 11] | also measured
1 | Nc1ncnc2c1ncn2[C@@H]1O[C@H](CO)[C@@H](O)[C@@H]1O [Ara A, adenine arabinoside, reference compound] | 2.5 | 3.0 | 0.25 | 0 | 6.5 | 6.5 | -0.2 | -0.2 | 0.5 | 3.0 | 1.0 | 0 | 7.0 | 7.5 | 1.0 | 2.0 | 1.0 | 1.0 | 5.0 | 5.7 | Cytopathic effect [CPE] (6days) ΔTCID50 ([2]; 20 μg/ml, HSV-1 (HF strain), Example 5, difference from control): no discernible antiviral effect; Cytopathic effect [CPE] (6days) △TCID50 ([4]; 20 μg/ml, difference from control): nil; log reduction at 20 µg/mL ([4]; Human alphaherpesvirus 2, 72 h, read-out: Cytopathic effect [CPE] (3days) △TCID50, 20 μg/ml, difference from control): -0.3; log reduction at 20 µg/mL ([4]; Human alphaherpesvirus 2, 144 h, read-out: Cytopathic effect [CPE] (6days) △TCID50, 20 μg/ml, difference from control): -0.8; log reduction at 30 µg/mL ([6]; Human alphaherpesvirus 1, 72 h, read-out: Cytopathic effect [CPE] (3days) △TCID50): 0.5; log reduction at 30 µg/mL ([6]; Human alphaherpesvirus 1, 120 h, read-out: Cytopathic effect [CPE] (5days) △TCID50): 0.3; Intracellular virus Average ([7]; extracellular virus): 3.93×10^3 /dish; Intracellular virus Average [7]: 7.38×10^4 /dish; log reduction at 30 µg/mL ([7]; 24 h, extracellular virus): 3.88; log reduction at 30 µg/mL ([7]; 24 h): 4.74; inhibition at 30 µg/mL [7]: > 99.9%
2 | O=c1[nH]c(=O)n([C@H]2C[C@H](O)[C@@H](CO)O2)cc1I [IDU, reference compound] | 2.25 | 3.0 | 0.5 | 0 | 6.3 | 6.5 | 0 | -0.2 | 0.75 | 1.25 | 1.75 | 1.75 | 5.3 | 5.5 | 1.0 | 2.0 | 1.0 | 1.0 | 5.3 | 6.0 | log reduction at 20 µg/mL ([4]; Human alphaherpesvirus 2, 72 h, 20 μg/ml, difference from control, read-out: Cytopathic effect [CPE] (3days) △TCID50): 1.4; log reduction at 30 µg/mL ([6]; Human alphaherpesvirus 1, 72 h, 30 μg/ml, HSV-1 (KOS), Example 7, difference from control, read-out: Cytopathic effect [CPE] (3days) △TCID50): 0.2; log reduction at 30 µg/mL ([6]; Human alphaherpesvirus 1, 120 h, 30 μg/ml, HSV-1 (KOS), Example 7, difference from control, read-out: Cytopathic effect [CPE] (5days) △TCID50): 0.3; Intracellular virus Average ([7]; extracellular virus): 7.50×10^3 /dish; Intracellular virus Average [7]: 1.00×10^6 /dish; inhibition at 30 µg/mL ([7]; 24 h, extracellular virus): > 99.9%; log reduction at 30 µg/mL ([7]; 24 h, extracellular virus): 3.6; inhibition at 30 µg/mL ([7]; 24 h): 99.8%; log reduction at 30 µg/mL ([7]; 24 h): 2.61
